Reference: PMC9934367, “Functional impact of subunit composition and compensation on Drosophila melanogaster nicotinic receptors–targets of neonicotinoids” (PLOS Genetics, 2023)

Tested on: D. melanogaster nAChRs
Assay: Comparison of agonist activity between nAChRs expressed in X. laevis oocytes (one-way ANOVA, Kruskal-Wallis);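 on Difference of Imax values: Imax relative to maximal plateau response to ACh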
Format: cell-based
In short: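 Agonist pEC50 values, derived from Hill fits of normalised peak currents, were compared across receptors by one-way ANOVA or Kruskal-Wallis. Currents came from oocytes clamped at −100 mV and perfused with atropine-containing saline (0.5 μM), 3–4 days after cRNA injection of fly nAChR subunits and co-factors.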

[1] = Dα1/Dβ1/Dβ2 vs. Dα1/Dα3/Dβ1/Dβ2
[2] = Dα1/Dβ1/Dβ2 vs. Dα2/Dα3/Dβ1/Dβ2
[3] = Dα1/Dβ1 vs. Dα1/Dα2/Dα3/Dβ1/Dβ2
[4] = Dα2/Dα3/Dβ1/Dβ2 vs. Dα1/Dα2/Dα3/Dβ1/Dβ2
[5] = Dα2/Dα3/Dβ1 vs. Dα1/Dα2/Dα3/Dβ1
[6] = Dα2/Dα3/Dβ1 vs. Dα1/Dα2/Dα3/Dβ1/Dβ2
[7] = Dα2/Dα3/Dβ1 vs. Dα1/Dα2/Dβ1/Dβ2
[8] = Dα2/Dα3/Dβ1 vs. Dα1/Dα3/Dβ1/Dβ2
[9] = Dα2/Dα3/Dβ1 vs. Dα2/Dα3/Dβ1/Dβ2
[10] = Dα3/Dβ1/Dβ2 vs. Dα1/Dα2/Dα3/Dβ1/Dβ2
[11] = Dα3/Dβ1/Dβ2 vs. Dα1/Dα2/Dβ1/Dβ2
[12] = Dα3/Dβ1/Dβ2 vs. Dα1/Dα3/Dβ1/Dβ2
[13] = Dα3/Dβ1/Dβ2 vs. Dα2/Dα3/Dβ1/Dβ2
[14] = Dα3/Dβ1 vs. Dα1/Dα2/Dα3/Dβ1/Dβ2

With O=[N+]([O-])NC1=NCCN1Cc1ccc(Cl)nc1 [Imidacloprid, imidacloprid] the “Difference of Imax values” [1] was -0.254, the “Difference of pEC50 values” [1] was -0.53 and the “Difference of Imax values” [2] was -0.049. The “Difference of pEC50 values” [2] was -0.01, the “Difference of Imax values” (Dα1/Dβ1/Dβ2 vs. Dα3/Dβ1/Dβ2) was 0.037 and the “Difference of pEC50 values” (Dα1/Dβ1/Dβ2 vs. Dα3/Dβ1/Dβ2) was -1.29. For the same molecule, the “Difference of Imax values” (Dα1/Dβ1 vs. Dα1/Dα2/Dα3/Dβ1) was 0.028, the “Difference of pEC50 values” (Dα1/Dβ1 vs. Dα1/Dα2/Dα3/Dβ1) was 0.08 and the “Difference of Imax values” [3] was -0.020. For the same molecule, the “Difference of pEC50 values” [3] was 0.69, the “Difference of Imax values” (Dα1/Dβ1 vs. Dα1/Dα2/Dβ1) was 0.091 and the “Difference of pEC50 values” (Dα1/Dβ1 vs. Dα1/Dα2/Dβ1) was 0.45. The “Difference of Imax values” (Dα1/Dβ1 vs. Dα1/Dα2/Dβ1/Dβ2) was -0.043, the “Difference of pEC50 values” (Dα1/Dβ1 vs. Dα1/Dα2/Dβ1/Dβ2) was 0.71 and the “Difference of Imax values” (Dα1/Dβ1 vs. Dα1/Dα3/Dβ1) was -0.048. The “Difference of pEC50 values” (Dα1/Dβ1 vs. Dα1/Dα3/Dβ1) was -0.42, the “Difference of Imax values” (Dα1/Dβ1 vs. Dα1/Dα3/Dβ1/Dβ2) was -0.208 and the “Difference of pEC50 values” (Dα1/Dβ1 vs. Dα1/Dα3/Dβ1/Dβ2) was -0.36. For the same molecule, the “Difference of Imax values” (Dα1/Dβ1 vs. Dα1/Dβ1/Dβ2) was 0.046, the “Difference of pEC50 values” (Dα1/Dβ1 vs. Dα1/Dβ1/Dβ2) was 0.17 and the “Difference of Imax values” (Dα1/Dβ1 vs. Dα2/Dα3/Dβ1) was 0.021. For the same molecule, the “Difference of pEC50 values” (Dα1/Dβ1 vs. Dα2/Dα3/Dβ1) was 0.28, the “Difference of Imax values” (Dα1/Dβ1 vs. Dα2/Dα3/Dβ1/Dβ2) was -0.003 and the “Difference of pEC50 values” (Dα1/Dβ1 vs. Dα2/Dα3/Dβ1/Dβ2) was 0.16. For the same molecule, the “Difference of Imax values” (Dα1/Dβ1 vs. Dα3/Dβ1) was 0.090, the “Difference of pEC50 values” (Dα1/Dβ1 vs. Dα3/Dβ1) was -1.16 and the “Difference of Imax values” (Dα1/Dβ1 vs. Dα3/Dβ1/Dβ2) was 0.083. The “Difference of pEC50 values” (Dα1/Dβ1 vs. Dα3/Dβ1/Dβ2) was -1.12, the “Difference of Imax values” [4] was -0.017 and the “Difference of pEC50 values” [4] was 0.53. For the same molecule, the “Difference of Imax values” [5] was 0.007, the “Difference of pEC50 values” [5] was -0.20 and the “Difference of Imax values” [6] was -0.041. For the same molecule, the “Difference of pEC50 values” [6] was 0.41, the “Difference of Imax values” [7] was -0.064 and the “Difference of pEC50 values” [7] was 0.43. For the same molecule, the “Difference of Imax values” [8] was -0.229, the “Difference of pEC50 values” [8] was -0.64 and the “Difference of Imax values” (Dα2/Dα3/Dβ1 vs. Dα1/Dβ1/Dβ2) was 0.025. For the same molecule, the “Difference of pEC50 values” (Dα2/Dα3/Dβ1 vs. Dα1/Dβ1/Dβ2) was -0.11, the “Difference of Imax values” [9] was -0.024 and the “Difference of pEC50 values” [9] was -0.12. For the same molecule, the “Difference of Imax values” (Dα2/Dα3/Dβ1 vs. Dα3/Dβ1/Dβ2) was 0.062, the “Difference of pEC50 values” (Dα2/Dα3/Dβ1 vs. Dα3/Dβ1/Dβ2) was -1.40 and the “Difference of Imax values” [10] was -0.103. For the same molecule, the “Difference of pEC50 values” [10] was 1.81, the “Difference of Imax values” [11] was -0.126 and the “Difference of pEC50 values” [11] was 1.83. The “Difference of Imax values” [12] was -0.291, the “Difference of pEC50 values” [12] was 0.76 and the “Difference of Imax values” [13] was -0.086. The “Difference of pEC50 values” [13] was 1.28, the “Difference of Imax values” (Dα3/Dβ1 vs. Dα1/Dα2/Dα3/Dβ1) was -0.062 and the “Difference of pEC50 values” (Dα3/Dβ1 vs. Dα1/Dα2/Dα3/Dβ1) was 1.24. For the same molecule, the “Difference of Imax values” [14] was -0.110, the “Difference of pEC50 values” [14] was 1.85 and the “Difference of Imax values” (Dα3/Dβ1 vs. Dα1/Dα2/Dβ1) was 0.001. The “Difference of pEC50 values” (Dα3/Dβ1 vs. Dα1/Dα2/Dβ1) was 1.61, the “Difference of Imax values” (Dα3/Dβ1 vs. Dα1/Dα2/Dβ1/Dβ2) was -0.133 and the “Difference of pEC50 values” (Dα3/Dβ1 vs. Dα1/Dα2/Dβ1/Dβ2) was 1.87. For the same molecule, the “Difference of Imax values” (Dα3/Dβ1 vs. Dα1/Dα3/Dβ1) was -0.138, the “Difference of pEC50 values” (Dα3/Dβ1 vs. Dα1/Dα3/Dβ1) was 0.74 and the “Difference of Imax values” (Dα3/Dβ1 vs. Dα1/Dα3/Dβ1/Dβ2) was -0.298. For the same molecule, the “Difference of pEC50 values” (Dα3/Dβ1 vs. Dα1/Dα3/Dβ1/Dβ2) was 0.80, the “Difference of Imax values” (Dα3/Dβ1 vs. Dα1/Dβ1/Dβ2) was -0.044 and the “Difference of pEC50 values” (Dα3/Dβ1 vs. Dα1/Dβ1/Dβ2) was 1.33. For the same molecule, the “Difference of Imax values” (Dα3/Dβ1 vs. Dα2/Dα3/Dβ1) was -0.069, the “Difference of pEC50 values” (Dα3/Dβ1 vs. Dα2/Dα3/Dβ1) was 1.44 and the “Difference of Imax values” (Dα3/Dβ1 vs. Dα2/Dα3/Dβ1/Dβ2) was -0.093. For the same molecule, the “Difference of pEC50 values” (Dα3/Dβ1 vs. Dα2/Dα3/Dβ1/Dβ2) was 1.32, the “Difference of Imax values” (Dα3/Dβ1 vs. Dα3/Dβ1/Dβ2) was -0.007 and the “Difference of pEC50 values” (Dα3/Dβ1 vs. Dα3/Dβ1/Dβ2) was 0.04.
